Values of other authors in patent publication US20050085455A1, “Photodynamic therapy for local adipocyte reduction” (Light Sciences Corporation, priority 2003, published 2005).

Conditions: systemically administered sensitizer in clinical use; for duration of skin sensitization: result in words

Row | Compound | duration of skin sensitization | duration of photosensitivity (skin photosensitivity)
1 | CCOC(=O)C1=Cc2c3nc(cc4nc(cc5[n-]c(cc6[n-]c2c(C)c6CC)c(C)c5CC)C(C)=C4CC)[C@@H](C)[C@]13CC.[Cl-].[Cl-].[Sn] (racemic) [Purlytin] | several weeks | –
2 | Oc1cccc(-c2c3nc(c(-c4cccc(O)c4)c4ccc([nH]4)c(-c4cccc(O)c4)c4nc(c(-c5cccc(O)c5)c5ccc2[nH]5)CC4)C=C3)c1 [Foscan] | several weeks | –
3 | sodium porfimer [Photophrin] | – | up to 6 weeks
